Reference: patent US20210000953A1, “USE OF IMMUNE CHECKPOINT INHIBITORS IN CENTRAL NERVOUS SYSTEMS NEOPLASMS” (Bristol-Myers Squibb Company, priority 2014, published 2021)
Entries after “also recorded” stand apart in the source; their conditions may differ.

Experiments:
PD-1 = biological target: T1, PD-1 (Homo sapiens, UniProt Q15116); assay: PD-1 receptor occupancy in subjects dosed with nivolumab; type: in vivo; settings: 15 subjects, 0.3 mg/kg to 10 mg/kg, across all doses
T1 construct: Receptor-occupancy data from 15 subjects who received 0.3 mg/kg to 10 mg/kg dosing with nivolumab; endogenous in cells
T1 sequence (Q15116 25-288): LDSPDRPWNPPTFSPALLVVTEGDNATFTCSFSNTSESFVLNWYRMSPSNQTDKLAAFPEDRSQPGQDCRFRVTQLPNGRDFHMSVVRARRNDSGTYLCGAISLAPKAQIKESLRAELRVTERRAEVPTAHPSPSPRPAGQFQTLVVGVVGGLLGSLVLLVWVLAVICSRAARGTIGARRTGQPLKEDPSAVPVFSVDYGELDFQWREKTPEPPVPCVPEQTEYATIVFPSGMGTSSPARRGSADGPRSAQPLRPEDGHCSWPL
Procedure: When used in combinations with other anti-cancer agents, the dosage of an anti-PD-1 antibody can be lowered compared to the monotherapy dose. Dosages of nivolumab that are lower than the typical 3 mg/kg, but not less than 0.001 mg/kg, are subtherapeutic dosages. The subtherapeutic doses of an anti-PD-1 antibody used in the methods herein are higher than 0.001 mg/kg and lower than 3 mg/kg. In some embodiments, a subtherapeutic dose is about 0.001 mg/kg-about 1 mg/kg, about 0.01 mg/kg-about 1 mg/kg, about 0.1 mg/kg-about 1 mg/kg, or about 0.001 mg/kg-about 0.1 mg/kg body weight. In some embodiments, the subtherapeutic dose is at least about 0.001 mg/kg, at least about 0.005 mg/kg, at least about 0.01 mg/kg, at least about 0.05 mg/kg, at least about 0.1 mg/kg, at least about 0.5 mg/kg, or at least about 1.0 mg/kg body weight. Receptor-occupancy data from 15 subjects who received 0.3 mg/kg to 10 mg/kg dosing with nivolumab indicate that PD-1 occupancy appears to be dose-independent in this dose range. Across all doses, the mean occupancy rate was 85% (range, 70% to 97%), with a mean plateau occupancy of 72% (range, 59% to 81%). In some embodiments, 0.3 mg/kg dosing can allow for sufficient exposure to lead to maximal biologic activity.

[1] = test system: subjects with recurrent GBM; assay: Study CA209143 safety lead-in cohorts (Cohort 1, 1b): safety, tolerability and patient disposition; type: in vivo, human
Procedure: This is the first study examining monoclonal antibodies targeting immune checkpoint inhibitors in subjects with recurrent GBM. To ensure that nivolumab monotherapy and nivolumab in combination with ipilimumab are tolerable, safety lead-in cohorts (Cohort 1, 1b) evaluating the tolerability of two different treatment regimens were initiated prior to advancing a treatment arm into Cohort 2. Cohort 1 examined in a randomized fashion the safety and tolerability of nivolumab monotherapy dosed at 3 mg/kg every 2 weeks or nivolumab 1 mg/kg+ipilimumab 3 mg/kg every 3 weeks for four doses, then nivolumab 3 mg/kg every 2 weeks thereafter. Cohort 1b examined, in a non-randomized fashion, the safety and tolerability of nivolumab 3 mg/kg+ipilimumab 1 mg/kg every 3 weeks for four doses, then nivolumab 3 mg/kg every 2 weeks thereafter.
A randomized, open-label, multicenter, phase 3 study of nivolumab monotherapy versus bevacizumab and a safety study of nivolumab and nivolumab in combination with ipilimumab is conducted in adult (>18 years) subjects with a first recurrence of GBM after treatment with radiotherapy and temozolomide. Since the use of nivolumab and ipilimumab has not previously been studied in subjects with GBM, a safety lead-in (Cohort 1) consisting of approximately 10 subjects in each of two treatment arms are enrolled and randomized to treatment with either Arm N (nivolumab monotherapy) or Arm N+I (nivolumab combined with ipilimumab). Tolerability and safety of a treatment arm is determined after all subjects in the arm completed four doses or discontinued dosing prior to completing four doses. A safety evaluation of Cohort 1 is conducted for each arm based on criteria described herein.
Subjects will be evaluated for safety if they have received any study drug. […]
The causal relationship to study drug is determined by a physician and should be used to assess all adverse events (AE). […]
Tolerability and safety of a treatment arm was determined after all subjects per arm have completed four doses or discontinued dosing prior to completing four doses. […]

[2] = test system: resected GBM tumor tissue; assay: Histopathology of tumor tissue resected at suspected progression; type: in vivo, human
Text: In those cases in which radiologic progression cannot be differentiated from pseudoprogression and it is the investigator's opinion that a surgical resection to obtain tumor tissue for histopathology is in the subject's best interests, a surgical resection may be performed following consultation with the BMS medical monitor. Tumor biopsy samples (blocks or slides) must be submitted for central review by a neuropathologist to minimize any inter-observer variation in the histopathologic assessment of progression versus treatment-related changes. If tumor pathology confirms progression, then the subject will be discontinued from study medication per protocol discontinuation criteria and the date of progression will be the day that it was first suspected. […] An MRI after the resection is required prior to treatment continuation. The subject will then continue all on-treatment tumor assessments as per the treatment schedule.
In those cases in which radiologic progression cannot be differentiated from pseudoprogression and the subject undergoes a biopsy or diagnostic surgical resection to obtain tumor tissue for histopathology analysis, representative tumor tissue samples will be reviewed locally and submitted for central review by a neuropathologist. If there is discordance between the central and local neuropathologic determination of progression versus treatment-associated changes (pseudoprogression), then a second central neuropathologic review will be performed and serve as the final adjudication of the histopathologic determination. Central review of histopathology will be blinded to the subject treatment arm assignment. Specific instructions will be provided to the investigative sites regarding the requirements for submission of tumor tissue for central neuropathologic review.

[3] = case: nivolumab 3 mg/kg, after five treatments

## nivolumab
PD-1; range 59% to 81%
  Mean plateau PD-1 occupancy: 72%
PD-1; range 70% to 97%
  Mean PD-1 occupancy rate: 85%
[1]; Cohort 1, N = 10 per arm, same regimens, deaths in both arms were due to disease, cutoff Sep. 9, 2015
  Patients in the study: Died: 7 (70) n (%)
[1]; Cohort 1, nivolumab 3 mg/kg monotherapy arm and nivolumab 1 mg/kg + ipilimumab 3 mg/kg combination arm, N = 10 each
  Deaths due to drug toxicity: no deaths due to drug toxicity
[1]; Cohort 1, recurrent GBM, N = 10 per arm, nivolumab 3 mg/kg Q2W or nivolumab 1 mg/kg + ipilimumab 3 mg/kg Q3W x4 then nivolumab 3 mg/kg Q2W, cutoff Sep. 9, 2015
  Reason for not continuing on treatment: Disease Progression: 9 (90) n (%)
[2]; case: after five doses of nivolumab 3 mg/kg Q2W, suspected progression
  Histopathology of the resected tumor: immune infiltration consistent with treatment-related changes; also recorded: consistent with significant treatment-related changes
[2]; [3]
  Pathology review of resection, occipital area: viable tumor in samples from the occipital area with infiltrating T-lymphocytes
  Pathology review of resection, periventricular area: only necrosis and fibrinous exudate (radiation necrosis) and large aggregates of lymphocytes with no tumor
